Source: patent US20240216366A1, “PHARMACEUTICAL COMPOSITION COMPRISING A DIPHENYLPYRAZINE DERIVATIVE” (ACTELION PHARMACEUTICALS LTD, priority 2021, published 2024)
Counter-ions that a name gives are not always drawn.

Tests used:
[1] = Feasibility pK rat study of aqueous micro-suspensions (LAI feasibility); type: in vivo; conditions: IM, 50 mg/kg; for long-acting release profile: 125 mg/mL micro-suspension pH 5
Procedure: For this study, aqueous micro-suspensions of Selexipag, {4-[(5,6-diphenylpyrazin-2-yl)(propan-2-yl)amino]butoxy}acetic acid and calcium; {4-[(5,6-diphenylpyrazin-2-yl)(propan-2-yl)amino]butoxy}acetate were prepared. An overview of the design of the study can be found in Table 1.
Release profiles and mean AUC of the different formulations are depicted in FIG. 1.

[2] = Assay/purity of gamma-irradiated drug product (UPLC); type: physicochemical; conditions: gamma-irradiation 40 and 60 kGy
Source text: For this reason, both gamma-irradiation and autoclavation (steam sterilization) of the final drug product need to be investigated. To evaluate the chemical stability of the final drug product during gamma-irradiation, 2 different concepts with calcium; {4-[(5,6-diphenylpyrazin-2-yl)(propan-2-yl)amino]butoxy}acetate having a particle size Dv50 of 8 micrometer were subjected to an irradiation grade of 40 kGy and 60 kGy.
Analytical Method used: The assay and the impurities of the gamma irradiated and non-gamma irradiated (ref) calcium salt of selexipag metabolite suspension (formulation) were analysed using reversed phase chromatography. Sample preparation was done by weighing 0.5 mL suspension in a 500 mL flask. Approximately 200 mL pH7 phosphate buffer:ACN (50:50) was added whereafter the flask was shaken mechanically for at least 30 minutes until complete dissolution. Dilute to volume with pH7 phosphate buffer:ACN (50:50). The resulting solution was diluted 5× by pipetting 5 mL into a 25 mL flask and diluting with the same dilution solvent. […]
Analysis was performed using a Waters UPLC H-Class equipped with DAD detector, column manager and auto-sampler. […] The assay value of the sample is calculated according following formula: […]
The concentration of an impurity is calculated according following formula: […]

[3] = Assay/purity of gamma-irradiated drug substance (UPLC); type: physicochemical
Procedure: To evaluate if gamma-irradiation could be used to produce sterile product, different irradiation grades were tested on calcium; {4-[(5,6-diphenylpyrazin-2-yl)(propan-2-yl)amino]butoxy}acetate. In this study, calcium; {4-[(5,6-diphenylpyrazin-2-yl)(propan-2-yl)amino]butoxy}acetate (“COMPOUND”) was irradiated with three different grades (i.e. 5, 25 and 40 kGy). Each irradiation grade was applied on two different COMPOUND vials. One of the two vials for each grade was flushed with nitrogen for 10 seconds. One reference vial containing non-irradiated COMPOUND was included in the assay/purity analysis. All samples were analyzed immediately after irradiation (Table 15) and re-analyzed after 3 months of storage at room temperature.
A second study was conducted on calcium: {4-[(5,6-diphenylpyrazin-2-yl)(propan-2-yl)amino]butoxy}acetate where three different irradiation grades were applied (i.e 5, 25 and 40 kGy).
Analytical Method used: The assay and the impurities of calcium salt of selexipag metabolite before (ref) and after gamma irradiation were analysed using reversed phase chromatography. Sample preparation was done by weighing 50 mg of sample in a 500 mL flask. Approximately 100 mL pH7 phosphate buffer:ACN (50:50) was added whereafter the flask was shaken mechanically for at least 30 minutes until complete dissolution. Dilute to volume with pH7 phosphate buffer:ACN (50:50). The resulting solution was diluted 5× by pipetting 5 mL into a 25 mL flask and diluting with the same dilution solvent. The reference solution is made following the same sample preparation, but using calcium salt of selexipag metabolite (“API”).
Analysis was performed using a Waters UPLC H-Class equipped with DAD detector, column manager and auto-sampler. Separation was done on a Acquity UPLC BEH C18 (2.1×150 mm, 1.7 μm) analytical column using a column temperature of 60° C. DAD detector was set on 230 nm. A 10 mM NH4Ac:ACN:MeOH (950:38:12) solution was used as mobile phase A. A 10 mM NH4Ac:ACN:MeOH (50:710:240) solution was used as mobile phase B. A linear gradient program of 26 minutes was applied starting in which the mobile phase B increases from 5% to 100% in 20 minutes. Hereafter the concentration of mobile phase B was brought back to 5% in 1 minute followed by an equilibration time of 5 minutes. The applied flow rate is 0.30 mL/min. An injection volume of 7 μL was used for the analysis. The assay value of the sample is calculated according following formula:
%=[API peak responsesample×concref×purityref×100%]/[peak responseref×concsample]
The concentration of an impurity is calculated according following formula:
%=[Impurity peak responsesample×concref×purityref×100%]/[peak responseref×concsample]

[4] = Assay/purity of drug product after autoclavation (steam sterilization); type: physicochemical
Procedure: In parallel with gamma-irradiation of the final drug product (formulated calcium; {4-[(5,6-diphenylpyrazin-2-yl)(propan-2-yl)amino]butoxy}acetate having a particle size Dv50 of 8 micrometer), autoclavation (steam sterilization) was evaluated as well.
Not only the effect upon chemical stability, but upon resuspendability was evaluated as well for the process of autoclavation (steam sterilization). The tested samples of experiment 142 were evaluated for resuspendability right after autoclavation (T0) and after 14 days of storage at 5° C. Time needed for resuspendability was acceptable at both timepoints.

[5] = test system: patients with pulmonary arterial hypertension; conditions: phase III clinical trial, versus placebo; cited from earlier work
[6] = 5 kGy, 3 months at room temperature
[7] = 5 kGy, 3 months at room temperature, flushed with N2
[8] = 25 kGy, 3 months at room temperature
[9] = 25 kGy, 3 months at room temperature, flushed with N2
[10] = 40 kGy, 3 months at room temperature
[11] = 40 kGy, 3 months at room temperature, flushed with N2
[12] = Reference (non-irradiated), 3 months at room temperature

CC(C)N(CCCCOCC(=O)O)c1cnc(-c2ccccc2)c(-c2ccccc2)n1 [ACT-333679, 2-(4-((5,6-diphenylpyrazin-2-yl)(isopropyl)amino)butoxy)acetic acid, reference compound]
long-acting release profile [1]: did not demonstrate a long-acting release profile

CC(C)N(CCCCOCC(=O)O)c1cnc(-c2ccccc2)c(-c2ccccc2)n1 [Ca-salt of ACT-333679, calcium; {4-[(5,6-diphenylpyrazin-2-yl)(propan-2-yl)amino]butoxy}acetate]
AUC increases up until ([1]; 125 mg/mL micro-suspension): ≤ 720 h | long-acting release profile up to ([1]; 125 mg/mL micro-suspension): up to 336 hours | plasma concentrations ([1]; 125 mg/mL micro-suspension, FIG. 1): significant lower plasma concentrations compared to both other groups | chemical stability in the drug product [2]: acceptable | Assay, % COMPOUND [3, 6]: 94.0% | Impurity, % RRT 1.16* [3, 6]: <0.05% | Impurity, % RRT 1.32* [3, 6]: 0.06% | Impurity, % RRT 1.34* [3, 6]: <0.05% | Assay, % COMPOUND [3, 7]: 94.1% | Impurity, % RRT 1.16* [3, 7]: <0.05% | Impurity, % RRT 1.32* [3, 7]: 0.06% | Impurity, % RRT 1.34* [3, 7]: <0.05% | Assay, % COMPOUND ([3]; 5 kGy, T0): 95.3% | Impurity, % RRT 1.16* ([3]; 5 kGy, T0): 0.05% | Impurity, % RRT 1.32* ([3]; 5 kGy, T0): <0.05% | Impurity, % RRT 1.34* ([3]; 5 kGy, T0): 0.09% | Assay, % COMPOUND ([3]; 5 kGy, T0, flushed with N2): 94.6% | Impurity, % RRT 1.16* ([3]; 5 kGy, T0, flushed with N2): 0.05% | Impurity, % RRT 1.32* ([3]; 5 kGy, T0, flushed with N2): <0.05% | Impurity, % RRT 1.34* ([3]; 5 kGy, T0, flushed with N2): 0.06% | Assay, % COMPOUND [3, 8]: 94.2% | Impurity, % RRT 1.16* [3, 8]: 0.07% | Impurity, % RRT 1.32* [3, 8]: 0.12% | Impurity, % RRT 1.34* [3, 8]: 0.06% | Assay, % COMPOUND [3, 9]: 93.6% | Impurity, % RRT 1.16* [3, 9]: <0.05% | Impurity, % RRT 1.32* [3, 9]: 0.05% | Impurity, % RRT 1.34* [3, 9]: 0.08% | Assay, % COMPOUND ([3]; 25 kGy, T0): 95.1% | Impurity, % RRT 1.16* ([3]; 25 kGy, T0): 0.10% | Impurity, % RRT 1.32* ([3]; 25 kGy, T0): 0.11% | Impurity, % RRT 1.34* ([3]; 25 kGy, T0): 0.06% | Assay, % COMPOUND ([3]; 25 kGy, T0, flushed with N2): 95.6% | Impurity, % RRT 1.16* ([3]; 25 kGy, T0, flushed with N2): <0.05% | Impurity, % RRT 1.32* ([3]; 25 kGy, T0, flushed with N2): 0.13% | Impurity, % RRT 1.34* ([3]; 25 kGy, T0, flushed with N2): 0.09% | Assay, % COMPOUND [3, 10]: 94.3% | Impurity, % RRT 1.16* [3, 10]: 0.08% | Impurity, % RRT 1.32* [3, 10]: 0.15% | Impurity, % RRT 1.34* [3, 10]: 0.10% | Assay, % COMPOUND [3, 11]: 92.9% | Impurity, % RRT 1.16* [3, 11]: 0.08% | Impurity, % RRT 1.32* [3, 11]: 0.14% | Impurity, % RRT 1.34* [3, 11]: 0.10% | Assay, % COMPOUND ([3]; 40 kGy, T0): 94.3% | Impurity, % RRT 1.16* ([3]; 40 kGy, T0): 0.13% | Impurity, % RRT 1.32* ([3]; 40 kGy, T0): 0.14% | Impurity, % RRT 1.34* ([3]; 40 kGy, T0): 0.06% | Assay, % COMPOUND ([3]; 40 kGy, T0, flushed with N2): 94.5% | Impurity, % RRT 1.16* ([3]; 40 kGy, T0, flushed with N2): 0.12% | Impurity, % RRT 1.32* ([3]; 40 kGy, T0, flushed with N2): 0.15% | Impurity, % RRT 1.34* ([3]; 40 kGy, T0, flushed with N2): 0.07% | Assay, % COMPOUND [3, 12]: 94.4% | Impurity, % RRT 1.16* [3, 12]: <0.05% | Impurity, % RRT 1.32* [3, 12]: <0.05% | Impurity, % RRT 1.34* [3, 12]: <0.05% | Assay, % COMPOUND ([3]; Reference (non-irradiated), T0): 95.3% | Impurity, % RRT 1.16* ([3]; Reference (non-irradiated), T0): <0.05% | Impurity, % RRT 1.32* ([3]; Reference (non-irradiated), T0): <0.05% | Impurity, % RRT 1.34* ([3]; Reference (non-irradiated), T0): 0.09% | chemical stability ([3]; drug substance, gamma-irradiation 5, 25, 40 kGy): acceptable | Assay, % COMPOUND ([3]; second study, 5 kGy): 104.4% | Impurity, % RRT 1.15* ([3]; second study, 5 kGy): <0.05% | Impurity, % RRT 1.16* ([3]; second study, 5 kGy): <0.05% | Impurity, % RRT 1.32* ([3]; second study, 5 kGy): <0.05% | Assay, % COMPOUND ([3]; second study, 25 kGy): 104.3% | Impurity, % RRT 1.15* ([3]; second study, 25 kGy): 0.06% | Impurity, % RRT 1.16* ([3]; second study, 25 kGy): 0.09% | Impurity, % RRT 1.32* ([3]; second study, 25 kGy): 0.07% | Assay, % COMPOUND ([3]; second study, 40 kGy): 103.7% | Impurity, % RRT 1.15* ([3]; second study, 40 kGy): 0.06% | Impurity, % RRT 1.16* ([3]; second study, 40 kGy): 0.12% | Impurity, % RRT 1.32* ([3]; second study, 40 kGy): 0.10% | chemical stability in the drug product [4]: chemically stable

CC(C)N(CCCCOCC(=O)NS(C)(=O)=O)c1cnc(-c2ccccc2)c(-c2ccccc2)n1 [Selexipag, 2-{4-[(5,6-diphenylpyrazin-2-yl)(propan-2-yl)amino]butoxy}-N-(methanesulfonyl)acetamide, reference compound]
long-acting release profile [1]: did not demonstrate a long-acting release profile | risk of the primary composite end point of death or a complication related to pulmonary arterial hypertension [5]: significantly lower
